According to US10206906B2, “Synergistic combination of a phenolic-rich maple syrup extract and an antibiotic” (priority 2015, dated 2019):
Values after ≈ are worked out from the molar mass of the structure shown. Like-named read-outs stand apart in the source and are kept apart here.

Legend:
P. aeruginosa PAO1 [1] = test: Determination of minimum inhibitory concentration (MIC); assay type: cell-based; settings: Pseudomonas aeruginosa
Protocol: (§1) A range of concentration of antibiotics, ciprofloxacin (0.0003-0.25 μg mL^−1) and carbenicillin (0.5-512 μg mL^−1), are chosen due to their known potency against all four bacterial strains. Dilutions are prepared in flat bottom, 96 well microtitre plates (Falcon™, Corning™, Fisher Scientific, ON, Canada). Each well of a microtitre plate is then inoculated with the desired bacterial strain (grown in MHB-II and diluted to […]) and the plate is incubated at 37° C. for 18 h under static conditions. Bacterial growth is assessed by (i) monitoring the optical density of the cell suspension in each well at 600 nm (OD600 nm), and (ii) the resazurin microtitre plate assay. In the resazurin microtitre plate assay, each well of a microtitre plate is supplemented with 20 μM resazurin, incubated in the dark for 20 min at room temperature, followed by fluorescence measurements at ex/em 570/590 nm using a TECAN Infinite M200 Pro microplate reader (Tecan Group Ltd., Switzerland). The lowest concentration of a compound able to prevent increase in OD600 nm and resazurin fluorescence intensity is recorded as the MIC for that compound.

P. mirabilis HI4320 [2] = test: as above; assay type: cell-based; settings: Proteus mirabilis
Protocol: as §1

E. coli CFT073 [3] = test: as above; assay type: cell-based; settings: Escherichia coli
Protocol: as §1

P. aeruginosa PA14 [4] = test: as above; assay type: cell-based; settings: Pseudomonas aeruginosa
Protocol: as §1

P. mirabilis HI4320 [5] = test: Checkerboard microdilution assay (growth inhibition synergy); assay type: cell-based, Proteus mirabilis
Protocol: (§2) The checkerboard microdilution assay is used for evaluation of in vitro antimicrobial synergy between two compounds (i.e., antibiotic/PRMSE, antibiotic/pure phenolic compound, and pure phenolic compounds with each other). Two-fold serial dilutions are prepared in MHB-II for each of the two compounds under study. The serial dilutions are then loaded into 96 well plates to achieve combinations having different concentrations of each of the two compounds. Each well is subsequently inoculated with 10^6 CFU mL^−1 of the desired bacterial strain and incubated at 37° C. for 18 h under static conditions. The Fractional Inhibitory Concentration Index (FICI) for each combination is calculated by using the following formula: FICcomponent 1=MICcomponent 1, in combination/MICcomponent 1,alone FICI=FICcomponent 1+FICcomponent 2
(§3) The FICIs are interpreted as follows: FICI of […] (synergy); 0.5<FICI ≤1 (no interaction/indifference); FICI of >4 (antagonism).

P. aeruginosa PAO1 [6] = test: as above; assay type: cell-based, Pseudomonas aeruginosa
Protocol: as §2, §3

P. aeruginosa PA14 [7] = test: as above; assay type: cell-based, Pseudomonas aeruginosa
Protocol: as §2, §3

[8] = test system: E. coli CFT073, P. mirabilis HI4320, P. aeruginosa PAO1 and PA14; test: Checkerboard microdilution assay, summary over the four strains; assay type: cell-based; settings: labelled constituent + gallic acid; range over the four strains
Protocol: as §2, §3

E. coli CFT073 [9] = test: Checkerboard microdilution assay (growth inhibition synergy); assay type: cell-based, Escherichia coli
Protocol: as §2, §3

[10] = test system: P. aeruginosa PA14 infection; test: Drosophila melanogaster (fruit fly) feeding infection assay; assay type: in vivo; settings: monotherapy at sub-MIC (PRMSE 6.25 mg mL^−1, ciprofloxacin 0.015 μg mL^−1)
Protocol: Mortality was scored daily for 14 days. […] Results represent measurements from experiments performed with duplicates, twice (*p<0.01, Log-rank Mantel-cox test).
In this infection assay, PRMSE was analyzed for its anti-infective activity. As well, antibiotic ciprofloxacin is analyzed in combination with PRMSE for its synergistic anti-infective interactions. Fruit flies (D. melanogaster) are infected orally in fly feeding assay as before (Lutter et al., 2008, Infect Immun., 76: 1877-1888), with some modifications. Briefly, flies are anesthetized under a gentle stream of carbon dioxide. Male flies (3- to 5-days-old) are starved of food and water for 5-6 h and separated into vials (10 per vial) containing 5 ml of 5% sucrose agar (sterile) without and with phenolic extract without and with antibiotic at sub-MICs and 2.3-cm filter paper disks (sterile) containing freshly grown bacterial culture suspension. To achieve this freshly grown culture, an overnight P. aeruginosa PA14 culture is inoculated in 6 mL TSB culture and incubated at 37° C. and 100 rpm until OD600=3.0. This culture is centrifuged at 12,000×g for 1 min and the resulting pellet resuspended in 150 μL of sterile 5% sucrose, without and with sub-MICs of phenolic extract or antibiotic. […] Post-infection mortality of flies is monitored daily for 14 days, with each treatment tested twice in duplicate.

P. aeruginosa PA14 lawn = test: In vitro analysis of hemolymph recovered from treated G. mellonella larvae; parameters: species or system Galleria mellonella; settings: hemolymph recovered 3 h post-injection, spotted on PA14 lawn, 24 h at 37° C.
Protocol: Larvae were injected with PRMSE (mg/mL) or Cip (μg/mL) alone and in combination, and hemolymph recovered 3 h after treatment were spotted on Pseudomonas isolation agar plates previously inoculated with PA14 cells to produce a lawn of confluent growth. The plate was observed after 24 h of incubation at 37° C. The experiment was performed with three larvae per each condition in triplicate. S-control: saline control.
To rule out any growth-inhibitory effect of PRMSE on PA14 cells due to induction of the immune response, production of antimicrobial peptides or transformation of the extract into a toxic compound(s) in the larval hemolymph, an additional set of larvae are injected with 5 μL of PRMSE without and with ciprofloxacin (sub-MICs) or saline solution as a control. The larval hemolymph is recovered at 3 h after the treatment and 5 μL aliquot of each larval hemolymph sample is spotted on the Pseudomonas isolation agar (BD-Difco) plates previously inoculated with PA14 cells to produce a lawn of confluent growth. The appearance of growth inhibition halos is verified after 24 h of incubation at 37° C.

D. melanogaster flies = test: D. melanogaster survival when fed extract or antibiotic individually; assay type: in vivo, Drosophila melanogaster; settings: PRMSE 6.25 mg/mL, ciprofloxacin 0.015 μg/mL, within 264 h
Protocol: As well, antibiotic ciprofloxacin is analyzed in combination with PRMSE for its synergistic anti-infective interactions. Fruit flies (D. melanogaster) are infected orally in fly feeding assay as before (Lutter et al., 2008, Infect Immun., 76: 1877-1888), with some modifications. Briefly, flies are anesthetized under a gentle stream of carbon dioxide. Male flies (3- to 5-days-old) are starved of food and water for 5-6 h and separated into vials (10 per vial) containing 5 ml of 5% sucrose agar (sterile) without and with phenolic extract without and with antibiotic at sub-MICs and 2.3-cm filter paper disks (sterile) containing freshly grown bacterial culture suspension. To achieve this freshly grown culture, an overnight P. aeruginosa PA14 culture is inoculated in 6 mL TSB culture and incubated at 37° C. and 100 rpm until OD600=3.0. This culture is centrifuged at 12,000×g for 1 min and the resulting pellet resuspended in 150 μL of sterile 5% sucrose, without and with sub-MICs of phenolic extract or antibiotic. […] Post-infection mortality of flies is monitored daily for 14 days, with each treatment tested twice in duplicate.

G. mellonella larvae = G. mellonella larvae survival after injection of extract or antibiotic alone; assay type: in vivo, Galleria mellonella; settings: injected alone; PRMSE 12.5 mg/mL, ciprofloxacin 0.03 μg/mL; within 72 h
Protocol: Each data set is representative of experiments with five larvae per condition in triplicate.
G. mellonella infection assay is performed as described previously with some modification (Jander et al., 2000, J Bacteriol., 182: 3843-3845). Briefly, PA14 culture grown overnight in TSB broth is diluted 1:100 in the same growth medium and further grown to OD600 nm of 1.27 at 37° C. under 100 rpm shaking. Freshly grown culture is centrifuged, and pellets are washed and resuspended in 10 mM MgSO4 to an OD600 of 0.1. […] Ampicillin is used to prevent infection by bacterial contaminants on the surface of the larvae at a final concentration of approximately 5 ng per larva during survival phase. G. mellonella larvae are injected with 5 μL aliquot of each treatment solution using prewashed Hamilton syringe. Five larvae are injected per each treatment and the assay is performed in triplicate. […] All injected larvae are incubated in Petri plates at 28° C. under the dark condition, and the number of dead larvae is scored daily after infection. […] A mock inoculation using prewashed Hamilton syringe is also performed in each experiment to monitor the killing due to physical injury or infection by pathogenic contaminants. […]

P. aeruginosa PA14 [11] = test: Survival of PA14 on sucrose filters during fly feeding assay; assay type: cell-based, Pseudomonas aeruginosa; settings: PRMSE 6.25 mg mL-1, ciprofloxacin 0.015 μg mL-1, mono- and combination; six days
Protocol: Total viable bacterial counts per filter were determined every second day for filters containing bacterial cells on sucrose agar. PA14 cells on filter were untreated or treated with PRMSE (6.25 mg mL-1) or ciprofloxacin (0.015 μg mL-1) alone and in combination. Average data represent data from experiment performed in triplicate and error bars represent S.D.
To address this possibility, the survival of PA14 on the paper discs without and with sub-MICs of PRMSE or antibiotic under the same conditions as the fly feeding assay is analyzed. Enumeration of viable bacteria on filters during the infection period is performed using separate test vials with different treatments inoculated with P. aeruginosa PA14 and inoculated control sucrose vials that are sampled on alternative days, up to 6 days during infection period. Briefly, filters from the test vials are removed in a sterile environment, placed in 50 mL polypropylene tube containing 5 mL of LB broth and vortexed for 30 s. This LB medium containing the sampled bacterial cells is serially diluted in phosphate buffer saline solution (pH 7.4), and 30 μL is plated onto Pseudomonas isolation agar (BD-Difco). Colonies are enumerated after the incubation at 37° C. for 24 h.

[12] = test system: P. aeruginosa PA14 infection; test: Galleria mellonella larvae (wax moth) infection assay; assay type: in vivo; settings: monotherapy at sub-MIC (PRMSE 12.5 mg/mL, ciprofloxacin 0.03 μg/mL)
Protocol: Each data set represents one experiment with five larvae per condition in triplicate, the experiment repeated twice (*P<0.05, Mantel-cox test, n=6).
Briefly, PA14 culture grown overnight in TSB broth is diluted 1:100 in the same growth medium and further grown to OD600 nm of 1.27 at 37° C. under 100 rpm shaking. Freshly grown culture is centrifuged, and pellets are washed and resuspended in 10 mM MgSO4 to an OD600 of 0.1. To prepare the lethal dose of P. aeruginosa PA14 culture serial 10-fold dilutions are made in 10 mM MgSO4 supplemented with 1 mg/mL of ampicillin (adjusted to about 1-10^3 bacterial cells in 5 μL of suspension) containing or not containing PRMSE, without and with ciprofloxacin at sub-MICs. Ampicillin is used to prevent infection by bacterial contaminants on the surface of the larvae at a final concentration of approximately 5 ng per larva during survival phase. G. mellonella larvae are injected with 5 μL aliquot of each treatment solution using prewashed Hamilton syringe. Five larvae are injected per each treatment and the assay is performed in triplicate. PRMSE and ciprofloxacin at sub-MICs are assessed individually to monitor adverse effect on larvae survival. […] All injected larvae are incubated in Petri plates at 28° C. under the dark condition, and the number of dead larvae is scored daily after infection. […]

[13] = ciprofloxacin in combination with the labelled phenolic constituent
[14] = labelled constituent + catechaldehyde, * = synergistic
[15] = labelled constituent + catechol, * = synergistic
[16] = labelled constituent + gallic acid, * = synergistic
[17] = labelled constituent combined with catechaldehyde
[18] = labelled constituent combined with catechol
[19] = labelled constituent combined with gallic acid
[20] = labelled phenolic constituent + ciprofloxacin, * = synergistic interaction
[21] = labelled phenolic constituent in combination with ciprofloxacin
[22] = ciprofloxacin/PRMSE combination, FIC of the labelled component

Question: Which results are given for COc1cc(C=O)cc(OC)c1O [syringaldehyde]?
Answer: MIC (P. aeruginosa PAO1 [1]; PAO1, 18 h): 5000 mg/L (≈ 27.4 mM); MIC (P. mirabilis HI4320 [2]; HI4320, 18 h): 5000 mg/L (≈ 27.4 mM); MIC (E. coli CFT073 [3]; CFT073, 18 h): 5000 mg/L (≈ 27.4 mM); MIC (P. aeruginosa PA14 [4]; PA14, 18 h): 5000 mg/L (≈ 27.4 mM); FIC of ciprofloxacin (P. mirabilis HI4320 [5]; [13]): 0.5; FICI, catechaldehyde (P. mirabilis HI4320 [5]; [14]): 0.75; FICI, catechol (P. mirabilis HI4320 [5]; [15]): 0.75; FICI, gallic acid (P. mirabilis HI4320 [5]; [16]): 1; FIC, catechaldehyde (P. mirabilis HI4320 [5]; [17]): 0.25; FIC, catechol (P. mirabilis HI4320 [5]; [18]): 0.25; FIC, gallic acid (P. mirabilis HI4320 [5]; [19]): 0.5; FICI (P. mirabilis HI4320 [5]; [20]): 1; FIC of compound (P. mirabilis HI4320 [5]; [21]): 0.5; FIC of ciprofloxacin (P. aeruginosa PAO1 [6]; [13]): 1; FICI, catechaldehyde (P. aeruginosa PAO1 [6]; [14]): 0.5*; FICI, catechol (P. aeruginosa PAO1 [6]; [15]): 0.5*; FICI, gallic acid (P. aeruginosa PAO1 [6]; [16]): 1; FIC, catechaldehyde (P. aeruginosa PAO1 [6]; [17]): 0.25; FIC, catechol (P. aeruginosa PAO1 [6]; [18]): 0.25; FIC, gallic acid (P. aeruginosa PAO1 [6]; [19]): 0.5; FICI (P. aeruginosa PAO1 [6]; [20]): 2; FIC of compound (P. aeruginosa PAO1 [6]; [21]): 1; FIC of ciprofloxacin (P. aeruginosa PA14 [7]; [13]): 0.5; FICI, catechaldehyde (P. aeruginosa PA14 [7]; [14]): 1; FICI, catechol (P. aeruginosa PA14 [7]; [15]): 1; FICI, gallic acid (P. aeruginosa PA14 [7]; [16]): 0.63; FIC, catechaldehyde (P. aeruginosa PA14 [7]; [17]): 0.5; FIC, catechol (P. aeruginosa PA14 [7]; [18]): 0.5; FIC, gallic acid (P. aeruginosa PA14 [7]; [19]): 0.13; FICI (P. aeruginosa PA14 [7]; [20]): 0.75; FIC of compound (P. aeruginosa PA14 [7]; [21]): 0.25; FICIs of pairs with gallic acid [8]: 0.63-1.0; FIC of ciprofloxacin (E. coli CFT073 [9]; [13]): 0.5; FICI, catechaldehyde (E. coli CFT073 [9]; [14]): 0.31*; FICI, catechol (E. coli CFT073 [9]; [15]): 0.31*; FICI, gallic acid (E. coli CFT073 [9]; [16]): 0.75; FIC, catechaldehyde (E. coli CFT073 [9]; [17]): 0.25; FIC, catechol (E. coli CFT073 [9]; [18]): 0.25; FIC, gallic acid (E. coli CFT073 [9]; [19]): 0.5; FICI (E. coli CFT073 [9]; [20]): 0.75; FIC of compound (E. coli CFT073 [9]; [21]): 0.25

Question: Which results are given for O=C(O)c1cn(C2CC2)c2cc(N3CCNCC3)c(F)cc2c1=O [ciprofloxacin, reference compound]?
Answer: MIC (P. aeruginosa PAO1 [1]; PAO1, antibiotic alone, MHB-II, 37° C., 18 h, read-out: MIC): 1 mg/L (≈ 0.00302 mM); MIC (P. mirabilis HI4320 [2]; HI4320, antibiotic alone, MHB-II, 37° C., 18 h, read-out: MIC): 0.016 mg/L (≈ 4.83e-05 mM); MIC (E. coli CFT073 [3]; CFT073, antibiotic alone, MHB-II, 37° C., 18 h, read-out: MIC): 0.008 mg/L (≈ 2.41e-05 mM); MIC (P. aeruginosa PA14 [4]; PA14, antibiotic alone, MHB-II, 37° C., 18 h, read-out: MIC): 0.06 mg/L (≈ 0.000181 mM); protection of D. melanogaster against PA14 infection [10]: fails to protect; FIC (Fractional Inhibitory Concentration) (P. mirabilis HI4320 [5]; [22]): 0.02; FIC (Fractional Inhibitory Concentration) (P. aeruginosa PAO1 [6]; [22]): 0.03; FIC (Fractional Inhibitory Concentration) (P. aeruginosa PA14 [7]; [22]): 0.03; effect of recovered larval hemolymph on PA14 growth in vitro (P. aeruginosa PA14 lawn): no effect; killing effect on D. melanogaster flies (D. melanogaster flies): no killing effect; killing effect on G. mellonella larvae (G. mellonella larvae): no killing effect; culturability of PA14 cells on filter paper discs (P. aeruginosa PA14 [11]): no significant difference; protection of G. mellonella larvae against PA14 infection [12]: fails to protect; FIC (Fractional Inhibitory Concentration) (E. coli CFT073 [9]; [22]): 0.25
